{"source": "PubChem BioAssay AID2060895", "about": "(Molecular Pharmacology Branch, DTP, NCI, 2025);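 as to viability, T/C: spheroids exposed to agents for seven days before readout; 100% = DMSO vehicle control wells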", "test_system": "PDC 899932-113-R3-J6 complex spheroid viability", "experiment": "Anticancer human tumor 899932-113-R3-J6-PDC patient-derived melanoma cell line growth inhibition [RAS]", "conditions": "for IC50: curve of first compound; for viability, T/C: stronger effect = lower value", "in_short": "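Tumour cells grown as complex spheroids with HUVEC endothelial cells and mesenchymal stem cells, treated with RAS pathway inhibitor combinations. Each agent spans half-log steps from near clinical Cmax, or 10 microM where Cmax is unknown.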", "key": {"[1]": {"conditions": "second compound 0.000949 µM, first compound 0.0316 µM"}, "[2]": {"conditions": "second compound 0.000949 µM, first compound 0.1 µM"}, "[3]": {"conditions": "second compound 0.000949 µM, first compound 0.316 µM"}, "[4]": {"conditions": "second compound 0.000949 µM, first compound 1 µM"}, "[5]": {"conditions": "second compound 0.000949 µM, first compound 3.16 µM"}, "[6]": {"conditions": "second compound 0.000949 µM, first compound 10 µM"}, "[7]": {"conditions": "second compound 0.003 µM, first compound 0.0316 µM"}, "[8]": {"conditions": "second compound 0.003 µM, first compound 0.1 µM"}, "[9]": {"conditions": "second compound 0.003 µM, first compound 0.316 µM"}, "[10]": {"conditions": "second compound 0.003 µM, first compound 1 µM"}, "[11]": {"conditions": "second compound 0.003 µM, first compound 3.16 µM"}, "[12]": {"conditions": "second compound 0.003 µM, first compound 10 µM"}, "[13]": {"conditions": "second compound 0.00949 µM, first compound 0.0316 µM"}, "[14]": {"conditions": "second compound 0.00949 µM, first compound 0.1 µM"}, "[15]": {"conditions": "second compound 0.00949 µM, first compound 0.316 µM"}, "[16]": {"conditions": "second compound 0.00949 µM, first compound 1 µM"}, "[17]": {"conditions": "second compound 0.00949 µM, first compound 3.16 µM"}, "[18]": {"conditions": "second compound 0.00949 µM, first compound 10 µM"}, "[19]": {"conditions": "second compound 0.03 µM, first compound 0.0316 µM"}, "[20]": {"conditions": "second compound 0.03 µM, first compound 0.1 µM"}, "[21]": {"conditions": "second compound 0.03 µM, first compound 0.316 µM"}, "[22]": {"conditions": "second compound 0.03 µM, first compound 1 µM"}, "[23]": {"conditions": "second compound 0.03 µM, first compound 3.16 µM"}, "[24]": {"conditions": "second compound 0.03 µM, first compound 10 µM"}, "[25]": {"conditions": "second compound 0.0949 µM, first compound 0.0316 µM"}, "[26]": {"conditions": "second compound 0.0949 µM, first compound 0.1 µM"}, "[27]": {"conditions": "second compound 0.0949 µM, first compound 0.316 µM"}, "[28]": {"conditions": "second compound 0.0949 µM, first compound 1 µM"}, "[29]": {"conditions": "second compound 0.0949 µM, first compound 3.16 µM"}, "[30]": {"conditions": "second compound 0.0949 µM, first compound 10 µM"}, "[31]": {"conditions": "second compound 0.3 µM, first compound 0.0316 µM"}, "[32]": {"conditions": "second compound 0.3 µM, first compound 0.1 µM"}, "[33]": {"conditions": "second compound 0.3 µM, first compound 0.316 µM"}, "[34]": {"conditions": "second compound 0.3 µM, first compound 1 µM"}, "[35]": {"conditions": "second compound 0.3 µM, first compound 3.16 µM"}, "[36]": {"conditions": "second compound 0.3 µM, first compound 10 µM"}}, "data": [{"smiles": "CC(C)NCC(C(=O)N1CCN(c2ncnc3c2C(C)CC3O)CC1)c1ccc(Cl)cc1", "note": "(centres undefined) + CCn1c(-c2cccnc2C(C)OC)c2c3cc(ccc31)N1CCOC(CC(NC(=O)C(C(C)C)N(C)C(=O)C3(F)CCN(C(=O)C#CC(C)(C)N(C)C)CC3)C(=O)N3CCCC(N3)C(=O)OCC(C)(C)C2)C1", "values": [{"measurement": "IC50", "setting": "second compound 0.000949 µM", "result": 5.52, "unit": "µM"}, {"measurement": "IC50", "setting": "second compound 0.003 µM", "result": 5.97, "unit": "µM"}, {"measurement": "IC50", "setting": "second compound 0.00949 µM", "result": 5.59, "unit": "µM"}, {"measurement": "IC50", "setting": "second compound 0.03 µM", "result": 4.9, "unit": "µM"}, {"measurement": "IC50", "setting": "second compound 0.0949 µM", "result": 3.86, "unit": "µM"}, {"measurement": "IC50", "setting": "second compound 0.3 µM", "result": 2.64, "unit": "µM"}, {"measurement": "viability, T/C", "setting": "[1]", "result": 105, "unit": "%"}, {"measurement": "viability, T/C", "setting": "[2]", "result": 97.3, "unit": "%"}, {"measurement": "viability, T/C", "setting": "[3]", "result": 97, "unit": "%"}, {"measurement": "viability, T/C", "setting": "[4]", "result": 84.2, "unit": "%"}, {"measurement": "viability, T/C", "setting": "[5]", "result": 62.5, "unit": "%"}, {"measurement": "viability, T/C", "setting": "[6]", "result": 36.5, "unit": "%"}, {"measurement": "viability, T/C", "setting": "[7]", "result": 112, "unit": "%"}, {"measurement": "viability, T/C", "setting": "[8]", "result": 106, "unit": "%"}, {"measurement": "viability, T/C", "setting": "[9]", "result": 97.3, "unit": "%"}, {"measurement": "viability, T/C", "setting": "[10]", "result": 80, "unit": "%"}, {"measurement": "viability, T/C", "setting": "[11]", "result": 68.7, "unit": "%"}, {"measurement": "viability, T/C", "setting": "[12]", "result": 36.5, "unit": "%"}, {"measurement": "viability, T/C", "setting": "[13]", "result": 111, "unit": "%"}, {"measurement": "viability, T/C", "setting": "[14]", "result": 107, "unit": "%"}, {"measurement": "viability, T/C", "setting": "[15]", "result": 96, "unit": "%"}, {"measurement": "viability, T/C", "setting": "[16]", "result": 90.7, "unit": "%"}, {"measurement": "viability, T/C", "setting": "[17]", "result": 59.2, "unit": "%"}, {"measurement": "viability, T/C", "setting": "[18]", "result": 39, "unit": "%"}, {"measurement": "viability, T/C", "setting": "[19]", "result": 99.3, "unit": "%"}, {"measurement": "viability, T/C", "setting": "[20]", "result": 105, "unit": "%"}, {"measurement": "viability, T/C", "setting": "[21]", "result": 96.2, "unit": "%"}, {"measurement": "viability, T/C", "setting": "[22]", "result": 80.8, "unit": "%"}, {"measurement": "viability, T/C", "setting": "[23]", "result": 58, "unit": "%"}, {"measurement": "viability, T/C", "setting": "[24]", "result": 38, "unit": "%"}, {"measurement": "viability, T/C", "setting": "[25]", "result": 97.3, "unit": "%"}, {"measurement": "viability, T/C", "setting": "[26]", "result": 97.8, "unit": "%"}, {"measurement": "viability, T/C", "setting": "[27]", "result": 88, "unit": "%"}, {"measurement": "viability, T/C", "setting": "[28]", "result": 71.4, "unit": "%"}, {"measurement": "viability, T/C", "setting": "[29]", "result": 53.8, "unit": "%"}, {"measurement": "viability, T/C", "setting": "[30]", "result": 36.7, "unit": "%"}, {"measurement": "viability, T/C", "setting": "[31]", "result": 89.1, "unit": "%"}, {"measurement": "viability, T/C", "setting": "[32]", "result": 84.8, "unit": "%"}, {"measurement": "viability, T/C", "setting": "[33]", "result": 74.3, "unit": "%"}, {"measurement": "viability, T/C", "setting": "[34]", "result": 60.2, "unit": "%"}, {"measurement": "viability, T/C", "setting": "[35]", "result": 49.5, "unit": "%"}, {"measurement": "viability, T/C", "setting": "[36]", "result": 32.6, "unit": "%"}]}, {"smiles": "CC(Nc1ccc2c(c1)OCCn1cc(N3C(=O)OCC3C(F)F)nc1-2)C(N)=O", "note": "(centres undefined) + CCn1c(-c2cccnc2C(C)OC)c2c3cc(ccc31)N1CCOC(CC(NC(=O)C(C(C)C)N(C)C(=O)C3(F)CCN(C(=O)C#CC(C)(C)N(C)C)CC3)C(=O)N3CCCC(N3)C(=O)OCC(C)(C)C2)C1", "values": [{"measurement": "IC50", "setting": "second compound 0.000949 µM", "result": 1.62, "unit": "µM"}, {"measurement": "IC50", "setting": "second compound 0.003 µM", "result": 1.87, "unit": "µM"}, {"measurement": "IC50", "setting": "second compound 0.00949 µM", "result": 1.38, "unit": "µM"}, {"measurement": "IC50", "setting": "second compound 0.03 µM", "result": 1.37, "unit": "µM"}, {"measurement": "IC50", "setting": "second compound 0.0949 µM", "result": 0.65, "unit": "µM"}, {"measurement": "IC50", "setting": "second compound 0.3 µM", "result": 0.153, "unit": "µM"}, {"measurement": "viability, T/C", "setting": "[1]", "result": 94.8, "unit": "%"}, {"measurement": "viability, T/C", "setting": "[2]", "result": 78.5, "unit": "%"}, {"measurement": "viability, T/C", "setting": "[3]", "result": 64.5, "unit": "%"}, {"measurement": "viability, T/C", "setting": "[4]", "result": 56.1, "unit": "%"}, {"measurement": "viability, T/C", "setting": "[5]", "result": 43.4, "unit": "%"}, {"measurement": "viability, T/C", "setting": "[6]", "result": 36.1, "unit": "%"}, {"measurement": "viability, T/C", "setting": "[7]", "result": 90.1, "unit": "%"}, {"measurement": "viability, T/C", "setting": "[8]", "result": 80.9, "unit": "%"}, {"measurement": "viability, T/C", "setting": "[9]", "result": 67, "unit": "%"}, {"measurement": "viability, T/C", "setting": "[10]", "result": 55.6, "unit": "%"}, {"measurement": "viability, T/C", "setting": "[11]", "result": 46, "unit": "%"}, {"measurement": "viability, T/C", "setting": "[12]", "result": 34.1, "unit": "%"}, {"measurement": "viability, T/C", "setting": "[13]", "result": 94.7, "unit": "%"}, {"measurement": "viability, T/C", "setting": "[14]", "result": 80.5, "unit": "%"}, {"measurement": "viability, T/C", "setting": "[15]", "result": 66.4, "unit": "%"}, {"measurement": "viability, T/C", "setting": "[16]", "result": 51.2, "unit": "%"}, {"measurement": "viability, T/C", "setting": "[17]", "result": 44.6, "unit": "%"}, {"measurement": "viability, T/C", "setting": "[18]", "result": 36, "unit": "%"}, {"measurement": "viability, T/C", "setting": "[19]", "result": 86.5, "unit": "%"}, {"measurement": "viability, T/C", "setting": "[20]", "result": 75.8, "unit": "%"}, {"measurement": "viability, T/C", "setting": "[21]", "result": 59.8, "unit": "%"}, {"measurement": "viability, T/C", "setting": "[22]", "result": 57.2, "unit": "%"}, {"measurement": "viability, T/C", "setting": "[23]", "result": 40.5, "unit": "%"}, {"measurement": "viability, T/C", "setting": "[24]", "result": 34, "unit": "%"}, {"measurement": "viability, T/C", "setting": "[25]", "result": 79.5, "unit": "%"}, {"measurement": "viability, T/C", "setting": "[26]", "result": 64.7, "unit": "%"}, {"measurement": "viability, T/C", "setting": "[27]", "result": 57, "unit": "%"}, {"measurement": "viability, T/C", "setting": "[28]", "result": 46, "unit": "%"}, {"measurement": "viability, T/C", "setting": "[29]", "result": 39.2, "unit": "%"}, {"measurement": "viability, T/C", "setting": "[30]", "result": 31.8, "unit": "%"}, {"measurement": "viability, T/C", "setting": "[31]", "result": 69.5, "unit": "%"}, {"measurement": "viability, T/C", "setting": "[32]", "result": 52, "unit": "%"}, {"measurement": "viability, T/C", "setting": "[33]", "result": 45, "unit": "%"}, {"measurement": "viability, T/C", "setting": "[34]", "result": 36.9, "unit": "%"}, {"measurement": "viability, T/C", "setting": "[35]", "result": 34.2, "unit": "%"}, {"measurement": "viability, T/C", "setting": "[36]", "result": 29.4, "unit": "%"}]}]}
